The values that follow come from US9371336B2, “Compounds for treating spinal muscular atrophy” (PTC Therapeutics Inc., priority 2012, dated 2016).

Data set [1] has as its system Smn protein. The data set can be described thus: Smn protein assay (HTRF) in cultured cells (SMA patient fibroblasts GM03813). The class given is cell-based, human. As to conditions: 48 hours; for EC1.5x for Smn protein expression: SMA patient fibroblast cells (GM03813), HTRF, 7-point concentration data, concentration producing 1.5 times Smn protein vs DMSO vehicle control; for maximum fold (Fold) increase of Smn protein: SMA patient fibroblast cells, 7-point concentration curve, relative to vehicle control. In short, it runs like this:
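SMA patient fibroblasts (GM03813) were treated 48 h at 37° C with a 7-point, 3.16-fold compound series in triplicate, then lysed in RIPA. Smn was read by HTRF (anti-SMN d2/kryptate, 665/620 nm ratio). ΔF versus blank was divided by vehicle ΔF to give fold Smn increase.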

Data set [2] has as its system SMN2 minigene mRNA (SMN2-A minigene construct). The data set can be described thus: SMN2 minigene mRNA splicing RT-qPCR assay in cultured cells. Conditions: Homo sapiens, HEK293-H; HEK293H cells stably transfected with SMN2-A minigene, 24 hours, 7-point concentration data; concentration giving 1.5-fold SMN2 full length mRNA relative to vehicle-treated cells; read-out: EC1.5x for production of full length SMN2 mRNA. It is filed as cell-based, human. In short, it runs like this:
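Full-length SMN2 minigene mRNA, measured by exon 7/luciferase-specific RT-qPCR that excludes endogenous SMN1/SMN2, was normalized to GAPDH and expressed relative to vehicle-treated cells via modified ΔΔCt. Stably transfected HEK293H cells received compound (7-point, 3.16-fold series, duplicates) for 24 h at 37 °C.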

In turn, `CN1CCN(c2ccc3cc(-c4cn5ccccc5n4)c(=O)oc3n2)CC1` [Cpd 38, 3-(imidazo[1,2-a]pyridin-2-yl)-7-(4-methylpiperazin-1-yl)-2H-pyrano[2,3-b]pyridin-2-one] showed a melting point of 243 to 246 °C. Also, in data set [1], the “EC1.5x for Smn protein expression” value is “*** (an EC1.5× between >0.3 μM and ≦1 μM is indicated by three stars (***))”; the “maximum fold (Fold) increase of Smn protein” value (“maximum fold (Fold) increase” below) was “***** (a fold increase >1.65 is indicated by five stars (*****))”. In data set [2], the EC (1.5-fold) was in the range of 0.1 to 0.3 µM.
In turn, `CN1CCN(c2cc3oc(=O)c(-c4nc5c(Cl)cccc5s4)cc3cn2)CC1` [Cpd 11, 3-(4-chloro-1,3-benzothiazol-2-yl)-7-(4-methylpiperazin-1-yl)-2H-pyrano[3,2-c]pyridin-2-one] gave a melting point of 285 to 288 °C. The “maximum fold (Fold) increase” value in data set [1] is “* (A maximum fold increase ≦1.2 is indicated by one star (*))”. Besides, the EC (1.5-fold) in data set [2] is 0.3 to 1 µM.
Regarding `CCN1CCCN(c2ccc3cc(-c4cn5cccnc5n4)c(=O)oc3n2)CC1` [Cpd 126, 7-(4-ethyl-1,4-diazepan-1-yl)-3-(imidazo[1,2-a]pyrimidin-2-yl)-2H-pyrano[2,3-b]pyridin-2-one], the melting point lay in the range of 271 to 273 °C. Also, the “maximum fold (Fold) increase” value in data set [1] is “*** (a fold increase between >1.35 and ≦1.5 is indicated by three stars (***))”. Also, in data set [2], the EC (1.5-fold) fell in the range of 0.1 to 0.3 µM.
Take `O=c1oc2nc(N3CCNCC3)ccc2cc1-c1nc2ccccc2s1` [Cpd 1, 3-(1,3-benzothiazol-2-yl)-7-(piperazin-1-yl)-2H-pyrano[2,3-b]pyridin-2-one]: the melting point lay in the range of 258 to 260 °C. Moreover, in data set [1], the “EC1.5x for Smn protein expression” value is “*** (an EC1.5× between >0.3 μM and ≦1 μM is indicated by three stars (***))”; the “maximum fold (Fold) increase” value is “*** (a fold increase between >1.35 and ≦1.5 is indicated by three stars (***))”. For the same compound, in data set [2], the EC (1.5-fold) lay in the range of 0.1 to 0.3 µM.
Consider `CCN1CCN(c2ccc3cc(-c4cn5cccc(Cl)c5n4)c(=O)oc3n2)C[C@@H]1C` [Cpd 145, 3-(8-chloroimidazo[1,2-a]pyridin-2-yl)-7-[(3S)-4-ethyl-3-methylpiperazin-1-yl]-2H-pyrano[2,3-b]pyridin-2-one], for which the melting point lay within 196 to 199 °C. Further, in data set [1], the “EC1.5x for Smn protein expression” value is recorded as “**** (an EC1.5×≦0.3 μM is indicated by four stars (****))”; the “maximum fold (Fold) increase” value was “**** (a fold increase between >1.5 and ≦1.65 is indicated by four stars (****))”. Besides, in data set [2], the EC (1.5-fold) is no more than 0.1 µM.

In general, melting point refers to the temperature, or range, at which the solid turns liquid.
